Data taken from ChEMBL document CHEMBL1201862, “PubChem BioAssay data set” (2004).
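96-well plates; 48 h exposure; 5 concentrations. Endpoints by linear interpolation between flanking doses. Not reached: highest tested concentration assigned. Abbreviation: GI50, concentration required for 50% inhibition of growth.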 The source made the active and inactive calls. Cut-off read from the data, not from the text of the source: active = GI50 up to about 1.1 µM and inactive = higher.

What was measured:
Assay in all cases: NCI tumour cell line growth inhibition, 48 h
786-0 = test system: 786-0
A498 = test system: A498
A549 = test system: A549
ACHN = test system: ACHN
BT-549 = test system: BT-549
CAKI-1 = test system: CAKI-1
COLO 205 = test system: COLO 205
DU-145 = test system: DU-145
EKVX = test system: EKVX
HCT-116 = test system: HCT-116
HCT-15 = test system: HCT-15
HOP-62 = test system: HOP-62
HOP-92 = test system: HOP-92
HT-29 = test system: HT-29
Hs-578T = test system: Hs-578T
IGROV-1 = test system: IGROV-1
K562 = test system: K562
KM12 = test system: KM12
LOX IMVI = test system: LOX IMVI
M14 = test system: M14
MCF7 = test system: MCF7
MDA-MB-231 = test system: MDA-MB-231
MDA-MB-435 = test system: MDA-MB-435
MDA-N = test system: MDA-N
Malme-3M = test system: Malme-3M
NCI-H226 = test system: NCI-H226
NCI-H23 = test system: NCI-H23
NCI-H460 = test system: NCI-H460
NCI-H522 = test system: NCI-H522
NCI/ADR-RES = test system: NCI/ADR-RES
OVCAR-3 = test system: OVCAR-3
OVCAR-4 = test system: OVCAR-4
OVCAR-5 = test system: OVCAR-5
OVCAR-8 = test system: OVCAR-8
PC-3 = test system: PC-3
RPMI-8226 = test system: RPMI-8226
RXF 393 = test system: RXF 393
SF-268 = test system: SF-268
SF-295 = test system: SF-295
SF-539 = test system: SF-539
SK-MEL-28 = test system: SK-MEL-28
SK-MEL-2 = test system: SK-MEL-2
SK-MEL-5 = test system: SK-MEL-5
SK-OV-3 = test system: SK-OV-3
SN12C = test system: SN12C
SNB-19 = test system: SNB-19
SNB-75 = test system: SNB-75
SW-620 = test system: SW-620
T47D = test system: T47D
TK-10 = test system: TK-10
U-251 = test system: U-251
UACC-257 = test system: UACC-257
UACC-62 = test system: UACC-62
UO-31 = test system: UO-31
CCRF-CEM = test system: CCRF-CEM
HCC 2998 = test system: HCC 2998
HL-60 = test system: HL-60
MOLT-4 = test system: MOLT-4
SR = test system: SR

Question: CN(C)Cc1nsc(N(C)C)n1 was tested. Which GI50 (786-0) did it give?
Answer: > 100 µM (inactive)

Question: What about the GI50 (A498) of the same compound?
Answer: > 100 µM (inactive)

Question: What about the GI50 (A549) of the same compound?
Answer: > 100 µM (inactive)

Question: And the GI50 (ACHN)?
Answer: > 100 µM (inactive)

Question: What about the GI50 (BT-549) of the same compound?
Answer: > 100 µM (inactive)

Question: And the GI50 (CAKI-1)?
Answer: > 100 µM (inactive)

Question: And the GI50 (COLO 205)?
Answer: > 100 µM (inactive)

Question: And the GI50 (DU-145)?
Answer: > 100 µM (inactive)

Question: What about the GI50 (EKVX) of the same compound?
Answer: > 100 µM (inactive)

Question: And the GI50 (HCT-116)?
Answer: > 100 µM (inactive)

Question: And the GI50 (HCT-15)?
Answer: > 100 µM

Question: What about the GI50 (HOP-62) of the same compound?
Answer: > 100 µM (inactive)

Question: What about the GI50 (HOP-92) of the same compound?
Answer: > 100 µM (inactive)

Question: And the GI50 (HT-29)?
Answer: > 100 µM (inactive)

Question: What about the GI50 (Hs-578T) of the same compound?
Answer: > 100 µM (inactive)

Question: What about the GI50 (IGROV-1) of the same compound?
Answer: > 100 µM (inactive)

Question: And the GI50 (K562)?
Answer: > 100 µM (inactive)

Question: And the GI50 (KM12)?
Answer: > 100 µM (inactive)

Question: And the GI50 (LOX IMVI)?
Answer: > 100 µM (inactive)

Question: What about the GI50 (M14) of the same compound?
Answer: > 100 µM (inactive)

Question: What about the GI50 (MCF7) of the same compound?
Answer: > 100 µM (inactive)

Question: And the GI50 (MDA-MB-231)?
Answer: > 100 µM (inactive)

Question: What about the GI50 (MDA-MB-435) of the same compound?
Answer: > 100 µM (inactive)

Question: And the GI50 (MDA-N)?
Answer: > 100 µM (inactive)

Question: And the GI50 (Malme-3M)?
Answer: > 100 µM (inactive)

Question: What about the GI50 (NCI-H226) of the same compound?
Answer: > 100 µM (inactive)

Question: What about the GI50 (NCI-H23) of the same compound?
Answer: > 100 µM (inactive)

Question: And the GI50 (NCI-H460)?
Answer: > 100 µM (inactive)

Question: And the GI50 (NCI-H522)?
Answer: > 100 µM (inactive)

Question: And the GI50 (NCI/ADR-RES)?
Answer: > 100 µM (inactive)

Question: What about the GI50 (OVCAR-3) of the same compound?
Answer: > 100 µM (inactive)

Question: And the GI50 (OVCAR-4)?
Answer: > 100 µM (inactive)

Question: And the GI50 (OVCAR-5)?
Answer: > 100 µM (inactive)

Question: And the GI50 (OVCAR-8)?
Answer: > 100 µM (inactive)

Question: What about the GI50 (PC-3) of the same compound?
Answer: > 100 µM (inactive)

Question: And the GI50 (RPMI-8226)?
Answer: > 100 µM (inactive)

Question: And the GI50 (RXF 393)?
Answer: > 100 µM (inactive)

Question: What about the GI50 (SF-268) of the same compound?
Answer: > 100 µM (inactive)

Question: And the GI50 (SF-295)?
Answer: > 100 µM (inactive)

Question: What about the GI50 (SF-539) of the same compound?
Answer: > 100 µM (inactive)

Question: What about the GI50 (SK-MEL-28) of the same compound?
Answer: > 100 µM (inactive)

Question: What about the GI50 (SK-MEL-2) of the same compound?
Answer: > 100 µM (inactive)

Question: And the GI50 (SK-MEL-5)?
Answer: > 100 µM (inactive)

Question: What about the GI50 (SK-OV-3) of the same compound?
Answer: > 100 µM (inactive)

Question: What about the GI50 (SN12C) of the same compound?
Answer: > 100 µM (inactive)

Question: And the GI50 (SNB-19)?
Answer: > 100 µM (inactive)

Question: And the GI50 (SNB-75)?
Answer: > 100 µM (inactive)

Question: And the GI50 (SW-620)?
Answer: > 100 µM (inactive)

Question: And the GI50 (T47D)?
Answer: > 100 µM (inactive)

Question: What about the GI50 (TK-10) of the same compound?
Answer: > 100 µM (inactive)

Question: What about the GI50 (U-251) of the same compound?
Answer: > 100 µM (inactive)

Question: And the GI50 (UACC-257)?
Answer: > 100 µM (inactive)

Question: What about the GI50 (UACC-62) of the same compound?
Answer: > 100 µM (inactive)

Question: What about the GI50 (UO-31) of the same compound?
Answer: > 100 µM (inactive)

Question: Which results are given for COc1ccc(-c2cc(=O)c3c(OC)c(OC)c(OC)c(OC)c3o2)cc1 [TANGERETIN]?
Answer: GI50 (786-0): 53.6 µM (inactive); GI50 (A498): 22.8 µM (inactive); GI50 (A549): 51.6 µM (inactive); GI50 (ACHN): 57 µM (inactive); GI50 (BT-549): 58.9 µM (inactive); GI50 (CAKI-1): 53.6 µM (inactive); GI50 (CCRF-CEM): 82.6 µM (inactive); GI50 (COLO 205): 55.7 µM (inactive); GI50 (DU-145): 85.5 µM (inactive); GI50 (EKVX): 49.1 µM (inactive); GI50 (HCC 2998): 91 µM (inactive); GI50 (HCT-116): 34 µM (inactive); GI50 (HCT-15): 35 µM; GI50 (HL-60): 34.4 µM (inactive); GI50 (HOP-62): 82.6 µM (inactive); GI50 (HOP-92): 20.2 µM (inactive); GI50 (HT-29): 35.2 µM (inactive); GI50 (Hs-578T): 34.2 µM (inactive); GI50 (IGROV-1): 69 µM (inactive); GI50 (K562): 37.8 µM (inactive); GI50 (LOX IMVI): 52.2 µM (inactive); GI50 (M14): 76.9 µM (inactive); GI50 (MCF7): > 100 µM (inactive); GI50 (MDA-MB-231): 28.8 µM (inactive); GI50 (MDA-MB-435): 50.5 µM (inactive); GI50 (MDA-N): 54.7 µM (inactive); GI50 (MOLT-4): 64.6 µM (inactive); GI50 (Malme-3M): 84.1 µM (inactive); GI50 (NCI-H226): 64.7 µM (inactive); GI50 (NCI-H23): 43.3 µM (inactive); GI50 (NCI-H460): 56.2 µM (inactive); GI50 (NCI-H522): 15.3 µM (inactive); GI50 (NCI/ADR-RES): 23.7 µM (inactive); GI50 (OVCAR-3): 42.4 µM (inactive); GI50 (OVCAR-4): 46.1 µM (inactive); GI50 (OVCAR-5): > 100 µM (inactive); GI50 (OVCAR-8): 41.2 µM (inactive); GI50 (RPMI-8226): 67 µM (inactive); GI50 (RXF 393): 45.4 µM (inactive); GI50 (SF-268): > 100 µM (inactive); GI50 (SF-295): 55.3 µM (inactive); GI50 (SF-539): > 100 µM (inactive); GI50 (SK-MEL-28): > 100 µM (inactive); GI50 (SK-MEL-2): 90.6 µM (inactive); GI50 (SK-MEL-5): 27.7 µM (inactive); GI50 (SK-OV-3): 99.8 µM (inactive); GI50 (SN12C): 65.2 µM (inactive); GI50 (SNB-19): > 100 µM (inactive); GI50 (SNB-75): 46.8 µM (inactive); GI50 (SR): > 100 µM (inactive); GI50 (SW-620): 67.8 µM (inactive); GI50 (T47D): 17 µM (inactive); GI50 (TK-10): 58.2 µM (inactive); GI50 (U-251): 91 µM (inactive); GI50 (UACC-257): 68.4 µM (inactive); GI50 (UACC-62): 22.4 µM (inactive); GI50 (UO-31): 37.5 µM (inactive)
